Experiments:
TGFBR1 mRNA = experiment: remaining TGFBR1 mRNA relative to control siRNA (off-target knock-down) (fraction of control); quantification method: branched DNA; higher = less knock-down
Procedure: (§1)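 Screen-hit siRNA duplexes (19-mer plus 3' dTdT overhang) were transiently transfected into HaCaT cells in 12-well plates. After 48 h, TGFBR1 and TGFBR2 mRNA were quantified by branched DNA assay (QuantiGene, normalised to HPRT1) or by SYBR qPCR (normalised to HPRT1/SMAD4). Values are the remaining mRNA relative to control-siRNA-transfected cells; 1-2 biological replicates.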

TGFBR2 mRNA = experiment: remaining TGFBR2 mRNA relative to control siRNA (off-target knock-down) (fraction of control); quantification method: branched DNA; higher = less knock-down
Procedure: as §1

Row | Sequence | remaining TGFBR1 mRNA (TGFBR1 mRNA) | remaining TGFBR2 mRNA (TGFBR2 mRNA)
1 | AUCUACACACACGCAAGAATT | 1.48 | 0.73
2 | AUGACACCUCAGUCCUUCCTT | 0.38 | 0.88
3 | AUGCACCGAACAGCUCCAUTT | 1.56 | 0.31
4 | AUGCACUGAAGAAUUUCUUTT | 0.43 | 0.75
5 | AUGCCAUUGUGCAUUGUCATT | 0.85 | 0.36
6 | AUGCUCCCUCUCAUACUCUTT | 0.9 | 0.39
7 | AUGGACAUUUACGGUAGUGTT | 0.44 | 0.46
8 | AUGGAGUAGCAUCACUCUCTT | 1.1 | 0.33
9 | AUGGCUAUUCCUGACCACGTT | 0.93 | 0.26
10 | AUGGUGAGAAGACACAGGCTT | 1.33 | 0.54
11 | AUGGUGUGGCUCGUCGUGCTT | 0.45 | 0.46
12 | AUGGUGUUUGCAAGCUCCUTT | 1 | 0.36
13 | AUGUAUAGGUAGUGCACAGTT | 0.98 | 0.35
14 | AUGUAUAGUCACGCAGUUCTT | 0.98 | 0.24
15 | AUGUCUCAAAGUCAAAAAATT | 0.92 | 0.58
16 | AUGUUCCGCCUGCUUUUGCTT | 1.19 | 0.38
17 | AUUAUGUCCUCUACGAUUATT | 0.76 | 0.49
18 | AUUGAAGCCACCAUUCUCCTT | 0.23 | 0.94
19 | AUUGUUCCGGAAAUAGGUCTT | 1.15 | 0.72
20 | AUUUCGCACACGUCCGUGUTT | 0.86 | 0.61
21 | CAAACAGCGGUUGGAAUAATT | 0.81 | 0.33
22 | CACUUCCCGGAUACUCAGATT | 0.96 | 0.33
23 | CAGAGCGAUCACCUUGAACTT | 0.66 | 0.17
24 | CAGUCUCAUCGUCCUCAUCTT | 1.07 | 0.69
25 | CCACUGGUGUGGGCCAUAATT | 1.38 | 0.51

Row | Sequence | remaining TGFBR1 mRNA (TGFBR1 mRNA) | remaining TGFBR2 mRNA (TGFBR2 mRNA)
26 | CCCAAGUCAUCCUGGUUGUTT | 0.83 | 0.67
27 | CCUCAAUUGACACUUGCCUTT | 1 | 0.8
28 | CUACCAUCAAUCCGGUAGGTT | 0.94 | 0.84
29 | CUCCUUGGCACACUUCUCATT | 0.93 | 0.34
30 | CUGACCAUGCAGAGGAUGATT | 0.83 | 0.82
31 | CUUGACUUCUGGGGUCCACTT | 0.92 | 0.94
32 | CUUGGUACAGCACAUGGUUTT | 0.55 | 0.82
33 | GAAGGUGUGAGUGAGGUCATT | 0.19 | 1.17
34 | GAGCAGCUCUCGUAGCCAUTT | 1.01 | 0.33
35 | GAGGUUGUUGUUGAGCUCGTT | 0.96 | 0.73
36 | GAGUGACCUGCUCCUCUAATT | 1.01 | 0.61
37 | GAUGAAGAAGAGCGCAGCATT | 1.27 | 1.08
38 | GAUGGACUGCAUACAUUGGTT | 0.29 | 0.87
39 | GAUGUUCCACAAAUUCCACTT | 0.85 | 0.47
40 | GCUGAAUGAGGGUAGUCUUTT | 0.28 | 0.64
41 | GGAAGUGUCAUGGAAGGUGTT | 0.7 | 0.29
42 | GGGCUGUCAAUGACAGCUUTT | 0.82 | 0.6
43 | GGGUUUUCCCAGUCACGACTT | 0.91 | 0.54
44 | GGUGCCAGGCAUUUUAUCCTT | 1.06 | 0.9
45 | GUUCAGCAGCAGCAGACCATT | 1.16 | 0.79
46 | GUUCUUGGGCUAUGUCCAATT | 0.89 | 0.32
47 | UAACGUGUGUAUGUCUGGCTT | 0.3 | 0.69
48 | UACAUGAUGUAAACGAUAATT | 0.44 | 0.54
49 | UACUUAAAGCCAGGGCCACTT | 1.32 | 0.77
50 | UAGCAUUCAUUUUCCGUGGTT | 0.72 | 0.27
